Results: publication PMC7529893, “Structural basis for substrate recognition and chemical inhibition of oncogenic MAGE ubiquitin ligases” (Nature Communications, 2020)

Biological target: T1, MAGE-A11:PCF11 interaction (GST-MAGE-A11 and FAM-PCF11_4) (Homo sapiens, UniProt P43364)
T1 construct: GST-MAGE-A11 MHD (human MAGE-A11 MHD amino acid 218-429); made in house; host or cells: E. coli BL21(DE3)
T1 sequence (P43364 218-429): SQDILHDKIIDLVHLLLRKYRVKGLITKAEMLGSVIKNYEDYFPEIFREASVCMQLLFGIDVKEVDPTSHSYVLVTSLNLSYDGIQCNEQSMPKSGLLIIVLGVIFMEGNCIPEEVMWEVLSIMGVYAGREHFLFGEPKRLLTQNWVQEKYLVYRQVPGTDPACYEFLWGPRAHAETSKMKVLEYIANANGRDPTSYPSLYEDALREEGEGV
Assay: TR-FRET primary / single point screen at 15 µM
Type: binding
Conditions: single point TR-FRET screening of 797 quinoline compounds against MAGE-A11:PCF11
How it was run: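 TR-FRET 520/490 nm emission ratio was read after 90 min at room temperature. Wells held 5 nM GST-MAGE-A11, 5 nM Tb-anti-GST, 200 nM FAM-PCF11_4 and 15 µM compound in Tris pH 7.5 buffer with MgCl2, BSA and DTT. %Inhibition was scaled to DMSO and minus-MAGE-A11 controls.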

percent inhibition (TR-FRET) | SMILES
12.0487 | Clc1ccc2c(NCCCCN(Cc3ccccc3)Cc3ccco3)ccnc2c1 [SJ000312681]
2.013 | Cc1ccc(CN(CCCCNc2ccnc3cc(Cl)ccc23)Cc2ccccc2)o1 [SJ000312682]
14.9636 | Clc1ccc2c(NCCCCN(Cc3ccccc3)Cc3ccc(Br)o3)ccnc2c1 [SJ000312684]
14.8973 | Clc1ccc2c(NCCCCN(Cc3ccccc3)Cc3ccoc3)ccnc2c1 [SJ000312685]
25.0481 | Clc1ccc2c(NCCCCN(Cc3ccccc3)Cc3cccs3)ccnc2c1 [SJ000312686]
20.7072 | Cc1ccc(CN(CCCCNc2ccnc3cc(Cl)ccc23)Cc2ccccc2)s1 [SJ000312687]
22.0375 | Clc1ccc2c(NCCCCN(Cc3ccccc3)Cc3ccc(Br)s3)ccnc2c1 [SJ000312688]
16.2962 | Clc1ccc2c(NCCCCN(Cc3ccccc3)Cc3ccsc3)ccnc2c1 [SJ000312689]
9.5313 | Clc1ccc2c(NCCCCN(Cc3ccccc3)Cc3ccccn3)ccnc2c1 [SJ000312690]
28.2792 | Clc1ccc2c(NCCCCN(Cc3ccccc3)Cc3ccc[nH]3)ccnc2c1 [SJ000312692]
7.676 | COc1cccc(CN(CCCCNc2ccnc3cc(Cl)ccc23)Cc2ccccc2)c1O [SJ000312694]
6.634 | COc1ccc(O)c(CN(CCCCNc2ccnc3cc(Cl)ccc23)Cc2ccccc2)c1 [SJ000312696]
24.8344 | Oc1ccccc1CN(CCCCNc1ccnc2cc(Cl)ccc12)Cc1ccccc1 [SJ000312697]
-19.5512 | COc1ccccc1N1CCN(c2c(S(=O)(=O)c3ccccc3)cnc3ccc(C)cc23)CC1 [SJ000315081]
-33.4837 | Cc1ccc2ncc(S(=O)(=O)c3ccccc3)c(N3CCN(c4ccccc4F)CC3)c2c1 [SJ000315092]
-99.0552 | O=S(=O)(c1ccccc1)c1cnc2ccc(F)cc2c1N1CCN(c2ccccc2F)CC1 [SJ000315166]
-5.441 | O=S(=O)(c1ccccc1)c1cnc2ccc(Cl)cc2c1N1CCN(c2ccccc2F)CC1 [SJ000315176]
-252.464 | COc1ccc2ncc(S(=O)(=O)c3ccccc3)c(N3CCN(c4ccccc4F)CC3)c2c1 [SJ000315263]
2.503 | CCCCN(CCCC)CC(=O)Nc1c2c(nc3ccccc13)N(C)CC2 [SJ000331523]

percent inhibition (TR-FRET) | SMILES
11.7837 | CCN(CC)CC(=O)Nc1c2c(nc3ccccc13)N(C)CC2 [SJ000331537]
17.0397 | CN(C)CC(=O)Nc1c2c(nc3ccccc13)N(C)CC2 [SJ000332030]
25.4682 | CC(C)CN(CCCCNc1ccnc2cc(Cl)ccc12)Cc1ccccc1 [SJ000357470]
3.973 | Clc1ccc2c(NC3CCN(CC4CC4)CC3)ccnc2c1 [SJ000357481]
18.3422 | Clc1ccc2c(NCCCCN(Cc3ccccc3)CC3CC3)ccnc2c1 [SJ000357485]
6.1527 | COc1ccc(F)cc1CN1CCC(Nc2ccnc3cc(Cl)ccc23)CC1 [SJ000357493]
20.7772 | COc1ccc(F)cc1CN(CCCCNc1ccnc2cc(Cl)ccc12)Cc1ccccc1 [SJ000357496]
10.503 | COc1cccc(F)c1CN1CCC(Nc2ccnc3cc(Cl)ccc23)CC1 [SJ000357498]
5.094 | COc1cccc(F)c1CN(CCCCNc1ccnc2cc(Cl)ccc12)Cc1ccccc1 [SJ000357501]
30.6494 | Oc1c(F)cc(F)cc1CN(CCCCNc1ccnc2cc(Cl)ccc12)Cc1ccccc1 [SJ000357506]
-4.381 | Clc1ccc2c(NC3CCN(Cc4ccc(Br)o4)CC3)ccnc2c1 [SJ000357512]
6.554 | Clc1ccc2c(NC3CCN(Cc4ccccc4)CC3)ccnc2c1 [SJ000357524]
9.995 | COc1cccc(CN2CCC(Nc3ccnc4cc(Cl)ccc34)CC2)c1O [SJ000357525]
7.779 | COc1ccc(O)c(CN2CCC(Nc3ccnc4cc(Cl)ccc34)CC2)c1 [SJ000357527]
22.1466 | Oc1ccccc1CN1CCC(Nc2ccnc3cc(Cl)ccc23)CC1 [SJ000357529]
34.5391 | CC(C)(C)CCN(CCCCNc1ccnc2cc(Cl)ccc12)Cc1ccccc1 [SJ000357537]
27.6387 | CCCCN(CCCCNc1ccnc2cc(Cl)ccc12)Cc1ccccc1 [SJ000357538]
-15.9162 | Clc1ccc2c(NCCCCN(CCOCc3ccccc3)Cc3ccccc3)ccnc2c1 [SJ000357543]

Same assay, conditions: single point TR-FRET screening of quinoline compounds against MAGE-A11:PCF11; 15 µM

percent inhibition (TR-FRET) | SMILES
10.2048 | Cc1ccc(CNCCCNc2ccnc3cc(Cl)ccc23)o1 [SJ000311326]
0.5217 | Clc1ccc2c(NCCCN(Cc3ccccc3)Cc3ccco3)ccnc2c1 [SJ000312668]
2.84 | Cc1ccc(CN(CCCNc2ccnc3cc(Cl)ccc23)Cc2ccccc2)o1 [SJ000312669]
-1.797 | Clc1ccc2c(NCCCN(Cc3ccccc3)Cc3ccc(Br)o3)ccnc2c1 [SJ000312671]
4.744 | Clc1ccc2c(NCCCN(Cc3ccccc3)Cc3cccs3)ccnc2c1 [SJ000312672]
4.629 | Cc1ccc(CN(CCCNc2ccnc3cc(Cl)ccc23)Cc2ccccc2)s1 [SJ000312673]
9.598 | Clc1ccc2c(NCCCN(Cc3ccccc3)Cc3ccsc3)ccnc2c1 [SJ000312675]
-4.148 | Clc1ccc2c(NCCCN(Cc3ccccc3)Cc3nccs3)ccnc2c1 [SJ000312676]
-3.851 | Clc1ccc2c(NCCCN(Cc3ccccc3)Cc3ccccn3)ccnc2c1 [SJ000312678]
-5.573 | Clc1ccc2c(NCCCN(Cc3ccccc3)Cc3ccncc3)ccnc2c1 [SJ000312679]
19.1371 | CCCN(CCCNc1ccnc2cc(Cl)ccc12)Cc1ccccc1 [SJ000357431]
16.5062 | CCCN(CCCNc1ccnc2cc(Cl)ccc12)Cc1ccc(C)s1 [SJ000357433]
20.147 | CCCN(CCCNc1ccnc2cc(Cl)ccc12)Cc1ccc(C)o1 [SJ000357437]
19.7269 | CCCN(CCCNc1ccnc2cc(Cl)ccc12)Cc1sccc1C [SJ000357439]
10.905 | Cc1ccsc1CN(CCCNc1ccnc2cc(Cl)ccc12)Cc1ccccc1 [SJ000357440]
6.2139 | CCCN(CCCNc1ccnc2cc(Cl)ccc12)Cc1ccoc1 [SJ000357442]
10.3448 | CCCN(CCCNc1ccnc2cc(Cl)ccc12)Cc1ccc[nH]1 [SJ000357445]
7.809 | CCCN(CCCNc1ccnc2cc(Cl)ccc12)Cc1cccnc1 [SJ000357446]
9.295 | CCCN(CCCNc1ccnc2cc(Cl)ccc12)Cc1ccncc1 [SJ000357449]

percent inhibition (TR-FRET) | SMILES
11.9552 | CCCN(CCCNc1ccnc2cc(Cl)ccc12)Cc1nccs1 [SJ000357454]
3.483 | CCCN(CCCNc1ccnc2cc(Cl)ccc12)Cc1ccco1 [SJ000357458]
27.4987 | Clc1ccc2c(NCCCN(Cc3ccccc3)Cc3ccc(Br)s3)ccnc2c1 [SJ000357461]
14.1686 | COc1ccc(O)c(CN(CCCNc2ccnc3cc(Cl)ccc23)Cc2ccccc2)c1 [SJ000357463]
13.1749 | COc1cccc(CN(CCCNc2ccnc3cc(Cl)ccc23)Cc2ccccc2)c1O [SJ000357465]
18.7467 | CC(C)CN(CCCNc1ccnc2cc(Cl)ccc12)Cc1ccccc1 [SJ000357468]
21.0583 | Clc1ccc2c(NCCCN(Cc3ccccc3)CC3CC3)ccnc2c1 [SJ000357483]
17.0835 | CCCN(CCCNc1ccnc2cc(Cl)ccc12)Cc1cc(F)ccc1OC [SJ000357494]
6.683 | COc1ccc(F)cc1CN(CCCNc1ccnc2cc(Cl)ccc12)Cc1ccccc1 [SJ000357495]
19.4021 | CCCN(CCCNc1ccnc2cc(Cl)ccc12)Cc1c(F)cccc1OC [SJ000357499]
-2.857 | COc1cccc(F)c1CN(CCCNc1ccnc2cc(Cl)ccc12)Cc1ccccc1 [SJ000357500]
27.6387 | Oc1c(F)cc(F)cc1CN(CCCNc1ccnc2cc(Cl)ccc12)Cc1ccccc1 [SJ000357504]
11.4525 | CCCN(CCCNc1ccnc2cc(Cl)ccc12)CC(C)C [SJ000357568]
12.1149 | CCCN(CCCNc1ccnc2cc(Cl)ccc12)CCC(C)(C)C [SJ000357570]
12.7774 | CCCCN(CCC)CCCNc1ccnc2cc(Cl)ccc12 [SJ000357571]
24.9781 | CCCN(CCCNc1ccnc2cc(Cl)ccc12)CCC(C)c1ccccc1 (centres unmarked) [SJ000357573]
4.8836 | CCCN(CCCNc1ccnc2cc(Cl)ccc12)CCc1ccccc1 [SJ000357574]
7.824 | CCCN(CCCNc1ccnc2cc(Cl)ccc12)CCCSC [SJ000357576]
